PubChem BioAssay AID2060610 (Molecular Pharmacology Branch, DTP, NCI, 2025)

Test system: 616215-338-R-J1-PDC complex spheroids, viability % test/control
Assay: Anticancer human tumor 616215-338-R-J1-PDC patient-derived colon adenocarcinoma cell line growth inhibition [CLK]
Details: for IC50: curve of first compound; for viability, T/C: stronger effect = lower value; active = viability on the fitted dose curve at most 10% of control; inactive = the rest
From the text: A high-throughput screen of multi-cell type tumor spheroids was designed to identify active combinations of […] and targeted small molecules. Complex spheroids include a stromal component modeled by human endothelial cells (HUVEC) and fibroblasts modeled by human mesenchymal stem cells (MSCs). The concentration ranges selected for each drug and investigational agent were based upon clinically achievable concentrations if the clinical Cmax of the agent was known.
Compounds. The drugs and investigational agents: cirtuvivint (SM08502; NSC835563), CC-671 (NSC850746), vemurafenib (NSC761431), tapotoclax (NSC804041), sotorasib (NSC818433), adagrasib (NSC831453), MRTX-1133 (NSC836407), BAY2416964 (NSC825713), copanlisib (NSC816437), inavolisib (NSC800729), abemaciclib (NSC768073), osimertinib (NSC779217), entinostat (NSC756642), eltanexor (KPT-8602, NSC794443), venetoclax (NSC766270), ceralasertib (NSC777638), bortezomib (NSC756655), olaparib (NSC753686), talazoparib (NSC767125), alisertib (NSC759677), peposertib (NSC802822), gemcitabine (NSC613327), 5-fluorouracil (NSC19893), SN-38 (NSC673596), oxaliplatin (NSC266046), paclitaxel (NSC125973), and doxorubicin (NSC123127), were obtained from the National Cancer Institute (NCI) Developmental Therapeutics Program Chemical Repository. The FDA-approved anticancer drug set is available from the Developmental Therapeutics Program at https://dtp.cancer.gov/organization/dscb/obtaining/available plates.htm. […] The stock solutions were prepared in dimethyl sulfoxide (DMSO, Sigma-Aldrich, St. Louis, MO, cat. D2650), except for the platinum complexes which were prepared in saline (Quality Biological, Gaithersburg, MD, cat. 114-055-101), at 800-fold the tested concentration and stored at -70 degrees C prior to their use. All drugs and investigational agents were tested over a range starting from a high concentration at or near the clinical Cmax and decreasing in half-log increments. If the clinical Cmax for an agent had not been determined, the highest concentration tested was 10 microM.
Cell Culture. All cells were maintained in an incubator at 37 degrees C and 5% CO2 with 95% humidity. The PDC lines were cultured according to standard operating procedures established by the NCI PDMR. Briefly, all PDCs were thawed and cultured in Matrigel-coated flasks prepared with a working solution of 1X Ham's F-12 nutrient mix, without supplementation (Invitrogen, Waltham, MA, cat. 11765054), 100 U/mL penicillin-streptomycin (Invitrogen, cat. 15140122), and 2.5% Matrigel (Corning Inc., Corning, NY, cat. 354248) for the first three passages. The 947758-054-R-J2-PDC line was cultured in 6B/Colon 1A media, which includes advanced DMEM/F-12 (Thermo Fisher Scientific, cat. 12634028), 10 mM HEPES (Thermo Fisher Scientific, cat. 15630080), 1X GlutaMAX supplement (Thermo Fisher Scientific, cat. 35050061), 0.1 mg/mL primocin (InvivoGen, cat. ant-pm-2), 10% defined fetal bovine serum, heat inactivated (HyClone Laboratories Inc., cat. SH30070.03HI), 1.25 mM N-Acetyl-L-cysteine (Sigma-Aldrich, cat. A9165), 10 mM nicotinamide (Sigma-Aldrich, cat. N0636), 1X B-27 supplement (Thermo Fisher Scientific, cat. 17504044), 1X N-2 supplement (Thermo Fisher Scientific, cat. 17502048), and 10 microM Y-27632 dihydrochloride (Tocris Bioscience, cat. 1254). The 876862-298-R-J1-PDC was cultured in 6E media, which includes all 6B/Colon 1A media components plus 50% L-WRN conditioned media (ATCC, cat. CRL-3276), 50 ng/mL recombinant human EGF recombinant protein (hEGF; Thermo Fisher Scientific, cat. PHG0311), 10 ng/mL recombinant human fibroblast growth factor 10 (hGFG-10; PeproTech, cat. 100-26), 1 ng/mL recombinant human fibroblast growth factor 2 (hFGF-2; PeproTech, cat. 100-18B), and 1 µM prostaglandin E2 (PGE2; Tocris, cat. 2296). The 227483-062-R1-J1-PDC line was cultured in Panc media, containing all 6E components except hFGF-2, with the addition of 500 nM SB-431542 (Selleckchem, cat. S1067) and 10 nM gastrin (Tocris, cat. 3006). […]

[1] = second compound 0.0316 µM, first compound 0.0316 µM
[2] = second compound 0.0316 µM, first compound 0.1 µM
[3] = second compound 0.0316 µM, first compound 0.316 µM
[4] = second compound 0.0316 µM, first compound 1 µM
[5] = second compound 0.1 µM, first compound 0.0316 µM
[6] = second compound 0.1 µM, first compound 0.1 µM
[7] = second compound 0.1 µM, first compound 0.316 µM
[8] = second compound 0.1 µM, first compound 1 µM
[9] = second compound 0.316 µM, first compound 0.0316 µM
[10] = second compound 0.316 µM, first compound 0.1 µM
[11] = second compound 0.316 µM, first compound 0.316 µM
[12] = second compound 0.316 µM, first compound 1 µM
[13] = second compound 1 µM, first compound 0.0316 µM
[14] = second compound 1 µM, first compound 0.1 µM
[15] = second compound 1 µM, first compound 0.316 µM
[16] = second compound 1 µM, first compound 1 µM
[17] = second compound 3.16 µM, first compound 0.0316 µM
[18] = second compound 3.16 µM, first compound 0.1 µM
[19] = second compound 3.16 µM, first compound 0.316 µM
[20] = second compound 3.16 µM, first compound 1 µM
[21] = second compound 10 µM, first compound 0.0316 µM
[22] = second compound 10 µM, first compound 0.1 µM
[23] = second compound 10 µM, first compound 0.316 µM
[24] = second compound 10 µM, first compound 1 µM
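Also: spheroids exposed to agents for 7 days.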
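For viability, T/C in this document: 100% = DMSO vehicle wells.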

CCN1CCN(Cc2ccc(Nc3ncc(F)c(-c4cc(F)c5nc(C)n(C(C)C)c5c4)n3)nc2)CC1 + CN1CCN(c2cc(C(=O)Nc3cc4cc(-c5cnn(C)c5)ccc4cn3)ccn2)CC1
885 nM: IC50 (second compound 0.1 µM)
inactive: viability, T/C (second compound 0.0316 µM, first compound 0.00316 µM) 111% | viability, T/C (second compound 0.0316 µM, first compound 0.01 µM) 105% | viability, T/C [1] 112% | viability, T/C [2] 149% | viability, T/C [3] 175% | viability, T/C [4] 46.2% | viability, T/C (second compound 0.1 µM, first compound 0.00316 µM) 114% | viability, T/C (second compound 0.1 µM, first compound 0.01 µM) 131% | viability, T/C [5] 116% | viability, T/C [6] 154% | viability, T/C [7] 120% | viability, T/C [8] 41.6% | viability, T/C (second compound 0.316 µM, first compound 0.00316 µM) 32.6% | viability, T/C (second compound 0.316 µM, first compound 0.01 µM) 32.6% | viability, T/C [9] 37.6% | viability, T/C [10] 48.6% | viability, T/C [11] 42.6% | viability, T/C [12] 12.8%
951 nM: IC50 (second compound 0.0316 µM)
active: viability, T/C (second compound 1 µM, first compound 0.00316 µM) 0.15% | viability, T/C (second compound 1 µM, first compound 0.01 µM) 0.73% | viability, T/C [13] 1.7% | viability, T/C [14] 0.2% | viability, T/C [15] 2.07% | viability, T/C [16] 1.73% | viability, T/C (second compound 3.16 µM, first compound 0.00316 µM) 0.15% | viability, T/C (second compound 3.16 µM, first compound 0.01 µM) 0.16% | viability, T/C [17] 0.15% | viability, T/C [18] 0.13% | viability, T/C [19] 0.76% | viability, T/C [20] 0.18% | viability, T/C (second compound 10 µM, first compound 0.00316 µM) 0.2% | viability, T/C (second compound 10 µM, first compound 0.01 µM) 0.19% | viability, T/C [21] 2.8% | viability, T/C [22] 0.2% | viability, T/C [23] 3.09% | viability, T/C [24] 0.2%
< 3.16 nM: IC50 (second compound 0.316 µM) | IC50 (second compound 1 µM) | IC50 (second compound 3.16 µM) | IC50 (second compound 10 µM)

CC(=O)O[C@H]1C(=O)[C@@]2(C)[C@H]([C@H](OC(=O)c3ccccc3)[C@]3(O)C[C@H](OC(=O)[C@H](O)[C@@H](NC(=O)c4ccccc4)c4ccccc4)C(C)=C1C3(C)C)[C@]1(OC(C)=O)CO[C@@H]1C[C@@H]2O + CN1CCN(c2cc(C(=O)Nc3cc4cc(-c5cnn(C)c5)ccc4cn3)ccn2)CC1
inactive: viability, T/C [1] 31.2% | viability, T/C [2] 21.8% | viability, T/C [3] 14.7% | viability, T/C [4] 18% | viability, T/C (second compound 0.0316 µM, first compound 3.16 µM) 18.6% | viability, T/C (second compound 0.0316 µM, first compound 10 µM) 22.4% | viability, T/C [5] 31.1% | viability, T/C [6] 17.9% | viability, T/C [7] 19.9% | viability, T/C [8] 16.4% | viability, T/C (second compound 0.1 µM, first compound 3.16 µM) 17.4% | viability, T/C (second compound 0.1 µM, first compound 10 µM) 25.2% | viability, T/C [9] 21.8% | viability, T/C [10] 18% | viability, T/C [11] 19.3% | viability, T/C [12] 16.1% | viability, T/C (second compound 0.316 µM, first compound 3.16 µM) 19.9% | viability, T/C (second compound 0.316 µM, first compound 10 µM) 20.5%
active: viability, T/C [13] 0.09% | viability, T/C [14] 0.12% | viability, T/C [15] 3.34% | viability, T/C [16] 0.08% | viability, T/C (second compound 1 µM, first compound 3.16 µM) 0.1% | viability, T/C (second compound 1 µM, first compound 10 µM) 3.08% | viability, T/C [17] 0.05% | viability, T/C [18] 0.11% | viability, T/C [19] 0.13% | viability, T/C [20] 0.1% | viability, T/C (second compound 3.16 µM, first compound 3.16 µM) 1.96% | viability, T/C (second compound 3.16 µM, first compound 10 µM) 2.3% | viability, T/C [21] 0.06% | viability, T/C [22] 0.13% | viability, T/C [23] 0.17% | viability, T/C [24] 0.16% | viability, T/C (second compound 10 µM, first compound 3.16 µM) 0.19% | viability, T/C (second compound 10 µM, first compound 10 µM) 1.72%
< 31.6 nM: IC50 (second compound 0.0316 µM) | IC50 (second compound 0.1 µM) | IC50 (second compound 0.316 µM) | IC50 (second compound 1 µM) | IC50 (second compound 3.16 µM) | IC50 (second compound 10 µM)
